Test results taken from patent publication US20260049077A1, “Neurotrophic Receptor Tyrosine Kinase (NTRK) Inhibitors and Methods Using Same” (Baylor College of Medicine, priority 2022, published 2026).
Read-outs that look alike come from different tables or passages of the source.

Key:
Assay in all cases: Promega K192 cell-based NanoBRET kinase occupancy assay
NEK5 = NEK5 (Homo sapiens (Human), UniProt Q6P3R8)
Protocol: (§1) Similarly, the selectivity of CDD-3031 for NTRK kinases was evaluated in a kinase occupancy assay (Promega K192 cell-based NanoBRET assay) using 192 kinases (Table 4).

STK11 = STK11 (Homo sapiens (Human), UniProt Q15831)
Protocol: as §1

WEE1 = WEE1 (Homo sapiens (Human), UniProt P30291)
Protocol: as §1

PKMYT1 = PKMYT1 (Homo sapiens (Human), UniProt Q99640)
Protocol: as §1

FLT3 = FLT3 (Homo sapiens (Human), UniProt P36888)
Protocol: as §1

JAK2 (V617F) = JAK2 (V617F) (Homo sapiens (Human), UniProt O60674, V617F)
Protocol: as §1

AURKB = AURKB (Homo sapiens (Human), UniProt Q96GD4)
Protocol: as §1

TEK = TEK (Homo sapiens (Human), UniProt Q02763)
Protocol: as §1

MAP3K12 = MAP3K12 (Homo sapiens (Human), UniProt Q12852)
Protocol: as §1

MKNK2 = MKNK2 (Homo sapiens (Human), UniProt Q9HBH9)
Protocol: as §1

ITK = ITK (Homo sapiens (Human), UniProt Q08881)
Protocol: as §1

TIE1 = TIE1 (Homo sapiens (Human), UniProt P35590)
Protocol: as §1

STK36 = STK36 (Homo sapiens (Human), UniProt Q9NRP7)
Protocol: as §1

CDKL1 = CDKL1 (Homo sapiens (Human), UniProt Q00532)
Protocol: as §1

STK11, sequence (Q15831 whole entry): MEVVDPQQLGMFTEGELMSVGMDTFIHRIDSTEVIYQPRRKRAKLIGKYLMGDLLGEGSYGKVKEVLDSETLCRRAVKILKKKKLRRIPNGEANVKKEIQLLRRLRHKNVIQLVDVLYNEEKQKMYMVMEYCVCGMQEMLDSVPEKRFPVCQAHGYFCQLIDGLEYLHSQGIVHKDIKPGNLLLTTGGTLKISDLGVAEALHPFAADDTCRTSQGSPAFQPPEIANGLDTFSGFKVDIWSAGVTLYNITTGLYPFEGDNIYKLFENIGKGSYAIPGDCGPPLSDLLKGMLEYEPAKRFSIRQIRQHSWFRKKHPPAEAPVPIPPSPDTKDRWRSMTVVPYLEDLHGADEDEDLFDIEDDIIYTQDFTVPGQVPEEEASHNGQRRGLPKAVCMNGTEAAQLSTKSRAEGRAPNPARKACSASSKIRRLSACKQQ
NEK5, sequence (Q6P3R8 whole entry): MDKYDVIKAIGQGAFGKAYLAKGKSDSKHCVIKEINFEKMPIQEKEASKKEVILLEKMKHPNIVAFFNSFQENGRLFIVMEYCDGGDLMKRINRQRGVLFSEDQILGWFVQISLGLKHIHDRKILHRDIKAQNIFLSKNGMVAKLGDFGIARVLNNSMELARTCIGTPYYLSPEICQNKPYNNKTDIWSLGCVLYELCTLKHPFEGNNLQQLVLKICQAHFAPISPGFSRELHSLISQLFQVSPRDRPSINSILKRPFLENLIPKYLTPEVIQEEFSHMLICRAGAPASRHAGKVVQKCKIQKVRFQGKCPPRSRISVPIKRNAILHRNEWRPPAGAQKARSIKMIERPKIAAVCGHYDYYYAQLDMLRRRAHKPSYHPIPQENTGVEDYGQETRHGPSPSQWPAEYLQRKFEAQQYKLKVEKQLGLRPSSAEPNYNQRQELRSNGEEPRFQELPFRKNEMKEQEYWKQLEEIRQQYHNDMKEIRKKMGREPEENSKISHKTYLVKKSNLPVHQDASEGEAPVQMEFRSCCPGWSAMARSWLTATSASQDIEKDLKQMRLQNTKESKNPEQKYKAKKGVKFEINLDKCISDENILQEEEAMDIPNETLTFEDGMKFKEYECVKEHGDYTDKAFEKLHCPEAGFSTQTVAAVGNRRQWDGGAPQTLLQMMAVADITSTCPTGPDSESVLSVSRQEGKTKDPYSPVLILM
ITK, sequence (Q08881 whole entry): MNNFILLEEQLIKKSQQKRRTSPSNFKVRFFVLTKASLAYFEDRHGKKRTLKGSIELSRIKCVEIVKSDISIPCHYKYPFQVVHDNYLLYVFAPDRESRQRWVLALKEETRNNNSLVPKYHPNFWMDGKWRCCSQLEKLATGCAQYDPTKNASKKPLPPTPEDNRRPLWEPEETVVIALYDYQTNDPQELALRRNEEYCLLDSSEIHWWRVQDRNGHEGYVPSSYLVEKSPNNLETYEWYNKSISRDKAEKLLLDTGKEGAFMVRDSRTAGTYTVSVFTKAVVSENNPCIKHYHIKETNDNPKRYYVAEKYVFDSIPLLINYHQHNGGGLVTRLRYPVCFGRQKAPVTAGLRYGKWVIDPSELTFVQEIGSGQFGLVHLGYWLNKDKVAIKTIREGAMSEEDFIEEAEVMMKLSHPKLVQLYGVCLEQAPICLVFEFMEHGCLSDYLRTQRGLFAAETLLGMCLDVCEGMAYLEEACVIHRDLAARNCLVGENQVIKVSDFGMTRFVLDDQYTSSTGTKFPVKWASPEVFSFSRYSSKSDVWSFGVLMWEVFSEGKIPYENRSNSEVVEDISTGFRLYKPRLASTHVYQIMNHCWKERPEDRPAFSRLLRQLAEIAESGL
TIE1, sequence (P35590 22-1138): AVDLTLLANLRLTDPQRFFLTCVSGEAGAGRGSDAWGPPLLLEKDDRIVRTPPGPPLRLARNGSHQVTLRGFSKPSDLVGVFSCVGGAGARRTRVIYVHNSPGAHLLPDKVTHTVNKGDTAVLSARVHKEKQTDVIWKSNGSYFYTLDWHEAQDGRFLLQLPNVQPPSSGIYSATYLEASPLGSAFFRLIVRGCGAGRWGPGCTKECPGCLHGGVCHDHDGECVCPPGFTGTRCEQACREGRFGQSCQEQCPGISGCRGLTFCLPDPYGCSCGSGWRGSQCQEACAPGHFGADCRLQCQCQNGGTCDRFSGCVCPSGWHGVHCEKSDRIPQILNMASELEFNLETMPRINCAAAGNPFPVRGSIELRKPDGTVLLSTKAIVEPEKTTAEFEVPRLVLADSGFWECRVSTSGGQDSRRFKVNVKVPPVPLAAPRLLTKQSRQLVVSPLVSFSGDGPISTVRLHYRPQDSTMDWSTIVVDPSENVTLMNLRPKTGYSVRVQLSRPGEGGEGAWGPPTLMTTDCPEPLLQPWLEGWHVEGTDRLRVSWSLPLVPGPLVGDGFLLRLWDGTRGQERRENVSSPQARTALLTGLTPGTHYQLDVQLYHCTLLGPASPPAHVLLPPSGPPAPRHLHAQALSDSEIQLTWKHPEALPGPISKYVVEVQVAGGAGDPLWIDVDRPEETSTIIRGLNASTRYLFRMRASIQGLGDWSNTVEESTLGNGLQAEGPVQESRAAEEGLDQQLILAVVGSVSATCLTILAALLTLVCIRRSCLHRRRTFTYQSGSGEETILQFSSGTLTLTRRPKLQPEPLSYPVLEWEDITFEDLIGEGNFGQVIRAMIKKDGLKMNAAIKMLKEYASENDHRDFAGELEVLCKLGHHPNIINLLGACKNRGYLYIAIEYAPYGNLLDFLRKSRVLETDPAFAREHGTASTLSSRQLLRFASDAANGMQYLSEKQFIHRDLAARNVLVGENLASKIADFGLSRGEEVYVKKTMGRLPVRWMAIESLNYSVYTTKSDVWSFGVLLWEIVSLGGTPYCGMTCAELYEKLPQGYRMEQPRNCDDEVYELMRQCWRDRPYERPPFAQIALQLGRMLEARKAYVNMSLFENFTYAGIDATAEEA
TEK, sequence (Q02763 23-1124): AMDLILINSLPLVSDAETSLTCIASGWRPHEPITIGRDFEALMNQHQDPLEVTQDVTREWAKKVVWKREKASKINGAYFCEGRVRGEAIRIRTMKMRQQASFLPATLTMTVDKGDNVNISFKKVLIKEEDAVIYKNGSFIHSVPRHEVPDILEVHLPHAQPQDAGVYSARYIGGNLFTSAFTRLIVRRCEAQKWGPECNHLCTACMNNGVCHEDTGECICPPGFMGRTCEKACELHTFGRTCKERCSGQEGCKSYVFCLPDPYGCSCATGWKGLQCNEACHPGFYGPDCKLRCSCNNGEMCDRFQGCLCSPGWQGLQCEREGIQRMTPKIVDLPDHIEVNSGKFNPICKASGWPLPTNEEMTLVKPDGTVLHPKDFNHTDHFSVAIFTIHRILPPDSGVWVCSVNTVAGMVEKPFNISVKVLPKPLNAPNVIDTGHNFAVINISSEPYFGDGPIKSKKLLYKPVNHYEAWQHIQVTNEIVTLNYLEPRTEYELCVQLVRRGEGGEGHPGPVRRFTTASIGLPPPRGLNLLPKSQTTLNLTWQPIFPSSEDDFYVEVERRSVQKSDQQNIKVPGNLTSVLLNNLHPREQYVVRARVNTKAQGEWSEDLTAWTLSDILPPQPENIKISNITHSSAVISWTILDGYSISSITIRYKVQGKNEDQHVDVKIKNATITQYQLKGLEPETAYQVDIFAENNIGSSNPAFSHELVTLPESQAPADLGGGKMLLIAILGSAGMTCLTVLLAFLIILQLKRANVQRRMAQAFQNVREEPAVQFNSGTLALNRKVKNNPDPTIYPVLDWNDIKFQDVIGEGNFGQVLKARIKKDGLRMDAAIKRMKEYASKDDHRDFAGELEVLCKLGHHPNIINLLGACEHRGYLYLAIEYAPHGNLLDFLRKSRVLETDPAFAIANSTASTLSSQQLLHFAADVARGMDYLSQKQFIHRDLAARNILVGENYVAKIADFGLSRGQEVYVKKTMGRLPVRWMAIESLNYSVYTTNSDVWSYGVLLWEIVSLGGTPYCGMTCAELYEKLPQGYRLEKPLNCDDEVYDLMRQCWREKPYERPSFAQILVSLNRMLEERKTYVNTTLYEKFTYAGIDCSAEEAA
FLT3, sequence (P36888 27-993): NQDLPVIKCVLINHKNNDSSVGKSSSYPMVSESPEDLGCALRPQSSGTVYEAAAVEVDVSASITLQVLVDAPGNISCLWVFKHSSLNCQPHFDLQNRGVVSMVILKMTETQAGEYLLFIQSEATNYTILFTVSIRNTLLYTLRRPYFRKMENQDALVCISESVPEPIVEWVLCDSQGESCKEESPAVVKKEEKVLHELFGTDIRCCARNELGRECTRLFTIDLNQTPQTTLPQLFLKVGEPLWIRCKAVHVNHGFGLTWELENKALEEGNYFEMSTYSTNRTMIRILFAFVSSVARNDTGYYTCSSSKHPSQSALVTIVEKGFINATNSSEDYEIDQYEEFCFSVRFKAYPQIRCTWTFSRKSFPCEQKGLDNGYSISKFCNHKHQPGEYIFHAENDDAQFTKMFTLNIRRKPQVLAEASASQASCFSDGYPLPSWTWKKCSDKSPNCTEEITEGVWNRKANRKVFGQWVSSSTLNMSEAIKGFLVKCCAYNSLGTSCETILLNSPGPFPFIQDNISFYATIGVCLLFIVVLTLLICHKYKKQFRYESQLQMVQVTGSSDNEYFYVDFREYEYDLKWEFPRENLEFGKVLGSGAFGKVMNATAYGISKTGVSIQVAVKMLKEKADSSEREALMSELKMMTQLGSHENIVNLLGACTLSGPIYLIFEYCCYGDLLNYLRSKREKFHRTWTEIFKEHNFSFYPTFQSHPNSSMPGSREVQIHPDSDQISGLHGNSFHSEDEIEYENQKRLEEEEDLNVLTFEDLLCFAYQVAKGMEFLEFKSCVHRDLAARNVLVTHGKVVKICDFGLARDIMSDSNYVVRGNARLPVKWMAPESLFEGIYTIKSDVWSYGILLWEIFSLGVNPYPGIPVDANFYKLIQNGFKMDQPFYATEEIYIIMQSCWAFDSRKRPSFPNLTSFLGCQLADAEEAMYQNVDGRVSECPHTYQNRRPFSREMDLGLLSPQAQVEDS

Question: `CN(Cc1ccn2ncc(C(N)=O)c2c1)C(=O)Nc1ccc(OC(F)(F)F)cc1` [CDD-3031, 5-((1-methyl-3-(4-(trifluoromethoxy)phenyl)ureido)methyl)pyrazolo[1,5-a]pyridine-3-carboxamide] was tested. Which receptor occupancy at 1 µM (NEK5; average, read-out: NEK5 kinase occupancy, Average (%)) did it give?
Answer: Its receptor occupancy at 1 µM is 5.02%.

Question: And the receptor occupancy at 1 µM (NEK5; replicate 1, read-out: NEK5 kinase occupancy, Replicate 1 (%))?
Answer: The receptor occupancy at 1 µM was -0.81%.

Question: What about the receptor occupancy at 1 µM (NEK5; replicate 2, read-out: NEK5 kinase occupancy, Replicate 2 (%)) of the same compound?
Answer: Its receptor occupancy at 1 µM is 10.8%.

Question: And the receptor occupancy at 1 µM (STK11; average, read-out: STK11 kinase occupancy, Average (%))?
Answer: The receptor occupancy at 1 µM was 5.85%.

Question: What about the receptor occupancy at 1 µM (STK11; replicate 1, read-out: STK11 kinase occupancy, Replicate 1 (%)) of the same compound?
Answer: Its receptor occupancy at 1 µM is 6.96%.

Question: And the receptor occupancy at 1 µM (STK11; replicate 2, read-out: STK11 kinase occupancy, Replicate 2 (%))?
Answer: The receptor occupancy at 1 µM was 4.74%.

Question: What about the receptor occupancy at 1 µM (WEE1; average, read-out: WEE1 kinase occupancy, Average (%)) of the same compound?
Answer: Its receptor occupancy at 1 µM is 4.94%.

Question: What about the receptor occupancy at 1 µM (WEE1; replicate 1, read-out: WEE1 kinase occupancy, Replicate 1 (%)) of the same compound?
Answer: Its receptor occupancy at 1 µM is 9.23%.

Question: And the receptor occupancy at 1 µM (WEE1; replicate 2, read-out: WEE1 kinase occupancy, Replicate 2 (%))?
Answer: Its receptor occupancy at 1 µM is 0.65%.

Question: And the receptor occupancy at 1 µM (PKMYT1; average, read-out: PKMYT1 kinase occupancy, Average (%))?
Answer: The receptor occupancy at 1 µM was 4.17%.

Question: What about the receptor occupancy at 1 µM (PKMYT1; replicate 1, read-out: PKMYT1 kinase occupancy, Replicate 1 (%)) of the same compound?
Answer: Its receptor occupancy at 1 µM is 5.47%.

Question: And the receptor occupancy at 1 µM (PKMYT1; replicate 2, read-out: PKMYT1 kinase occupancy, Replicate 2 (%))?
Answer: The receptor occupancy at 1 µM was 2.88%.

Question: What about the receptor occupancy at 1 µM (FLT3; average, read-out: FLT3 kinase occupancy, Average (%)) of the same compound?
Answer: Its receptor occupancy at 1 µM is 7.12%.

Question: What about the receptor occupancy at 1 µM (FLT3; replicate 1, read-out: FLT3 kinase occupancy, Replicate 1 (%)) of the same compound?
Answer: The receptor occupancy at 1 µM was -10.3%.

Question: And the receptor occupancy at 1 µM (FLT3; replicate 2, read-out: FLT3 kinase occupancy, Replicate 2 (%))?
Answer: The receptor occupancy at 1 µM was 24.6%.

Question: What about the receptor occupancy at 1 µM (JAK2 (V617F); average, read-out: JAK2 (V617F) kinase occupancy, Average (%)) of the same compound?
Answer: The receptor occupancy at 1 µM was 9.92%.

Question: What about the receptor occupancy at 1 µM (JAK2 (V617F); replicate 1, read-out: JAK2 (V617F) kinase occupancy, Replicate 1 (%)) of the same compound?
Answer: Its receptor occupancy at 1 µM is 31.4%.

Question: And the receptor occupancy at 1 µM (JAK2 (V617F); replicate 2, read-out: JAK2 (V617F) kinase occupancy, Replicate 2 (%))?
Answer: Its receptor occupancy at 1 µM is -11.6%.

Question: And the receptor occupancy at 1 µM (AURKB; average, read-out: AURKB kinase occupancy, Average (%))?
Answer: Its receptor occupancy at 1 µM is 7.37%.

Question: And the receptor occupancy at 1 µM (AURKB; replicate 1, read-out: AURKB kinase occupancy, Replicate 1 (%))?
Answer: The receptor occupancy at 1 µM was 3.71%.

Question: And the receptor occupancy at 1 µM (AURKB; replicate 2, read-out: AURKB kinase occupancy, Replicate 2 (%))?
Answer: Its receptor occupancy at 1 µM is 11%.

Question: What about the receptor occupancy at 1 µM (TEK; average, read-out: TEK kinase occupancy, Average (%)) of the same compound?
Answer: Its receptor occupancy at 1 µM is 10.2%.

Question: And the receptor occupancy at 1 µM (TEK; replicate 1, read-out: TEK kinase occupancy, Replicate 1 (%))?
Answer: The receptor occupancy at 1 µM was 13.1%.

Question: What about the receptor occupancy at 1 µM (TEK; replicate 2, read-out: TEK kinase occupancy, Replicate 2 (%)) of the same compound?
Answer: Its receptor occupancy at 1 µM is 7.34%.

Question: What about the receptor occupancy at 1 µM (MAP3K12; average, read-out: MAP3K12 kinase occupancy, Average (%)) of the same compound?
Answer: Its receptor occupancy at 1 µM is 7.58%.

Question: What about the receptor occupancy at 1 µM (MAP3K12; replicate 1, read-out: MAP3K12 kinase occupancy, Replicate 1 (%)) of the same compound?
Answer: The receptor occupancy at 1 µM was 21.2%.

Question: What about the receptor occupancy at 1 µM (MAP3K12; replicate 2, read-out: MAP3K12 kinase occupancy, Replicate 2 (%)) of the same compound?
Answer: The receptor occupancy at 1 µM was -6.05%.

Question: What about the receptor occupancy at 1 µM (MKNK2; average, read-out: MKNK2 kinase occupancy, Average (%)) of the same compound?
Answer: The receptor occupancy at 1 µM was 4.61%.

Question: And the receptor occupancy at 1 µM (MKNK2; replicate 1, read-out: MKNK2 kinase occupancy, Replicate 1 (%))?
Answer: Its receptor occupancy at 1 µM is 7.96%.

Question: What about the receptor occupancy at 1 µM (MKNK2; replicate 2, read-out: MKNK2 kinase occupancy, Replicate 2 (%)) of the same compound?
Answer: The receptor occupancy at 1 µM was 1.26%.

Question: And the receptor occupancy at 1 µM (ITK; average, read-out: ITK kinase occupancy, Average (%))?
Answer: The receptor occupancy at 1 µM was 5.61%.

Question: And the receptor occupancy at 1 µM (ITK; replicate 1, read-out: ITK kinase occupancy, Replicate 1 (%))?
Answer: Its receptor occupancy at 1 µM is 14.2%.

Question: What about the receptor occupancy at 1 µM (ITK; replicate 2, read-out: ITK kinase occupancy, Replicate 2 (%)) of the same compound?
Answer: The receptor occupancy at 1 µM was -2.94%.

Question: What about the receptor occupancy at 1 µM (TIE1; average, read-out: TIE1 kinase occupancy, Average (%)) of the same compound?
Answer: Its receptor occupancy at 1 µM is 14%.

Question: And the receptor occupancy at 1 µM (TIE1; replicate 1, read-out: TIE1 kinase occupancy, Replicate 1 (%))?
Answer: Its receptor occupancy at 1 µM is 8.54%.

Question: What about the receptor occupancy at 1 µM (TIE1; replicate 2, read-out: TIE1 kinase occupancy, Replicate 2 (%)) of the same compound?
Answer: Its receptor occupancy at 1 µM is 19.5%.

Question: And the receptor occupancy at 1 µM (STK36; average, read-out: STK36 kinase occupancy, Average (%))?
Answer: The receptor occupancy at 1 µM was 4.82%.

Question: And the receptor occupancy at 1 µM (STK36; replicate 1, read-out: STK36 kinase occupancy, Replicate 1 (%))?
Answer: Its receptor occupancy at 1 µM is -3.75%.

Question: And the receptor occupancy at 1 µM (STK36; replicate 2, read-out: STK36 kinase occupancy, Replicate 2 (%))?
Answer: The receptor occupancy at 1 µM was 13.4%.

Question: And the receptor occupancy at 1 µM (CDKL1; average, read-out: CDKL1 kinase occupancy, Average (%))?
Answer: Its receptor occupancy at 1 µM is 8.23%.

Question: And the receptor occupancy at 1 µM (CDKL1; replicate 1, read-out: CDKL1 kinase occupancy, Replicate 1 (%))?
Answer: Its receptor occupancy at 1 µM is 2.8%.

Question: And the receptor occupancy at 1 µM (CDKL1; replicate 2, read-out: CDKL1 kinase occupancy, Replicate 2 (%))?
Answer: The receptor occupancy at 1 µM was 13.7%.
